Reference: patent EP4711367A1, “PYRAZOLOPYRAZINE COMPOUND AND METHOD FOR PREPARING CRYSTAL FORM THEREOF” (CMS Research & Development Pte. Ltd., priority 2023, dated 2024)

Experiments:
JAK3(h) = target: T1, JAK3(h) (Homo sapiens, UniProt P52333); assay: In vitro activity test of JAK3 kinase ([γ-33P]-ATP filter assay, Eurofins); assay type: biochemical
T1 construct: purchased Eurofins (UK)
T1 sequence (P52333 1-1124): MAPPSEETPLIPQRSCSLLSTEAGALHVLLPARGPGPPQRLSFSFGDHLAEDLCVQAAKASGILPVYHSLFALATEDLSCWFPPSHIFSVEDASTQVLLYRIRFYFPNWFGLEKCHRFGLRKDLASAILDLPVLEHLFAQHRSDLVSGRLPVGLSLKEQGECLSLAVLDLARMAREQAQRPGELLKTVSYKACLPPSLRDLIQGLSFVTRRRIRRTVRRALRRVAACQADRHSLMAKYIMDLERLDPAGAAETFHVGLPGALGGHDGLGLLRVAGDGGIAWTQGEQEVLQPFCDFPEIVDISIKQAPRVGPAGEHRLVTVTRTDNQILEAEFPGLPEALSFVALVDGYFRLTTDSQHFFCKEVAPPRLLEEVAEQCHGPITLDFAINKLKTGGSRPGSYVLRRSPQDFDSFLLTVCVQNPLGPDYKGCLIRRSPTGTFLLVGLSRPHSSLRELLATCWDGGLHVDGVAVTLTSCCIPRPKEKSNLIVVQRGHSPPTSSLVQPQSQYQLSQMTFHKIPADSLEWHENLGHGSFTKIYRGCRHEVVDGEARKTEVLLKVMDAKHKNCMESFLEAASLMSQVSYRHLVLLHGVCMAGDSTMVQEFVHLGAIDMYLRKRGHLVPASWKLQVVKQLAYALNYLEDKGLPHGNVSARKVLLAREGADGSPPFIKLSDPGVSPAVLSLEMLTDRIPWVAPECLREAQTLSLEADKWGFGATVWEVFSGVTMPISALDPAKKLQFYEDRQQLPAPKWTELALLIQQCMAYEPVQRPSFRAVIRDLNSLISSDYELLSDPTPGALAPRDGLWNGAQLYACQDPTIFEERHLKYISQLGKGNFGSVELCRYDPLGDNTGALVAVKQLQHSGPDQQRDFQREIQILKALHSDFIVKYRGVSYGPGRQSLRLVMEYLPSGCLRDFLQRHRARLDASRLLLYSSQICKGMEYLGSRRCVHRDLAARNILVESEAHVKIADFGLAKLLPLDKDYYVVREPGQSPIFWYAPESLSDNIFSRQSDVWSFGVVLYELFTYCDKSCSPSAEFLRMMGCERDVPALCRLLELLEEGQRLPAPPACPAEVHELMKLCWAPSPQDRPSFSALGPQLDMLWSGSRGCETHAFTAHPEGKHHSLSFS
Protocol: (§1) Recombinant human JAK1, JAK2, JAK3, and Tyk2 proteases, along with major instruments and reagents, were provided by Eurofins in the UK. JAK2, JAK3, and TYK2 were diluted with: 20 mM 3-(N-morpholino)propanesulfonic acid (MOPS), 1 mM EDTA, 0.01% Brij-35.5% glycerol, 0.1% β-mercaptoethanol, 1 mg/mL BSA; JAK1 was diluted with: 20 mM TRIS, 0.2 mM EDTA, 0.1% β-mercaptoethanol, 0.01% Brij-35.5% glycerol. The compound of formula (I) was prepared as a 100% DMSO solution and diluted to 50 times the final assay concentration. The test compound was subjected to a 3-fold serial dilution, with final concentrations ranging from 10 µM to 0.001 µM across 9 concentrations, and the DMSO content in the detection reaction was 2%. The working stock solution of this compound was added as the first component of the reaction to the assay wells, followed by the addition of the remaining components according to the protocol detailed below. JAK3(h) was incubated with 8 mM MOPS pH 7.0, 0.2 mM EDTA, 500 µM GGEEEEYFELVKKKK, 10 mM magnesium acetate, and [γ-^33P]-ATP (activity and concentration were adjusted as needed). The reaction was initiated by adding the Mg/ATP mixture and incubated at room temperature for 40 minutes, then terminated by adding 0.5% phosphoric acid. […] The IC50 results were analyzed using XLFIT5 (205 formula) from IDBS, as detailed in Table 12. […]

TYK2(h) = target: T2, TYK2(h) (Homo sapiens, UniProt P29597); assay: In vitro activity test of TYK2 kinase ([γ-33P]-ATP filter assay, Eurofins); assay type: biochemical
T2 construct: purchased Eurofins (UK)
T2 sequence (P29597 whole entry): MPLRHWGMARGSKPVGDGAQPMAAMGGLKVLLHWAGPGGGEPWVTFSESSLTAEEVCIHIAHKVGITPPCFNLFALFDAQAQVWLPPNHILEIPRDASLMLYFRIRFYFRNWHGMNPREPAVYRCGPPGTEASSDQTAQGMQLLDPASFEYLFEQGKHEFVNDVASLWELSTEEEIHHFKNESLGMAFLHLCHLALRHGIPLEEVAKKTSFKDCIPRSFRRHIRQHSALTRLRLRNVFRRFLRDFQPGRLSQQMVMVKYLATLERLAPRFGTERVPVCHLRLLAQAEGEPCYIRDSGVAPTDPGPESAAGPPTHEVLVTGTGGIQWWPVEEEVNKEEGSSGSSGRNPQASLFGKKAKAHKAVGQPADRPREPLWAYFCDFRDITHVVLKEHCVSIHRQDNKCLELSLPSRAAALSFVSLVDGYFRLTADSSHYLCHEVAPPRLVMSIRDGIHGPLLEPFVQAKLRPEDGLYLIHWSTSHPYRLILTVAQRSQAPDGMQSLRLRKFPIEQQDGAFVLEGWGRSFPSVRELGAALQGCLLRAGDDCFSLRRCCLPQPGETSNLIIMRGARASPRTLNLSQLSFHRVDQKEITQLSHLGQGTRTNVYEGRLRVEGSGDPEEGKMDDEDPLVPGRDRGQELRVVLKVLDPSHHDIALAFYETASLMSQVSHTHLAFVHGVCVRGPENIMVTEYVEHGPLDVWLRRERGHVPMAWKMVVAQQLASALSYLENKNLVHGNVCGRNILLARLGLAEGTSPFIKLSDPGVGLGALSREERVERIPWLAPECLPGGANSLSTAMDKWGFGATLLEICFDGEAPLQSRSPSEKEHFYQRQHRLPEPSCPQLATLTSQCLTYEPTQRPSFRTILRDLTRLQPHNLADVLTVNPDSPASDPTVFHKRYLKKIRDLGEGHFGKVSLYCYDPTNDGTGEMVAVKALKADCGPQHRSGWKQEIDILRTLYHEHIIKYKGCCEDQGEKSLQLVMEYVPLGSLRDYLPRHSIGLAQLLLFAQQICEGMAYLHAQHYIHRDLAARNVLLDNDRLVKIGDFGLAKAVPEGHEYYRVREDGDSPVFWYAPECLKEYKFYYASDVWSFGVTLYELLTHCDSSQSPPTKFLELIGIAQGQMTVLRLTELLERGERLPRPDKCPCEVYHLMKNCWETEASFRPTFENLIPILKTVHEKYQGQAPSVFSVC
Protocol: as §1, with “TYK2(h)” for “JAK3(h)”, “250” for “500”, “GGMEDIYFEFMGGKKK,” for “GGEEEEYFELVKKKK,”, “concentration” for “concentration were”

SMILES: Cn1cc(-c2cn3nccc3c(-c3cnn([C@]4(CC#N)CC5(C[C@H](C#N)C5)C4)c3)n2)cn1 (stereo partly drawn) [Compound of formula (I)]
- IC50 (JAK3(h)): 189 nM
- IC50 (TYK2(h)): 0.9 nM
- selective inhibition against TYK2 and/or JAK1 and/or JAK2 (TYK2(h); in vitro activity tests for the four kinase subtypes JAK1, JAK2, JAK3, and TYK2): good selective inhibition
